From patent publication EP4653444A1, “FUSED TRICYCLIC COMPOUND AS KINASE INHIBITOR” (Hangzhou Innogate Pharma Co., Ltd., priority 2023, dated 2024) come the findings set out here.

Molecules are shown by their SMILES. Read-outs that look alike come from different tables or passages of the source.

One data set deals with T1, ULK1 kinase (Homo sapiens, UniProt O75385).
T1 sequence (O75385 1-1050): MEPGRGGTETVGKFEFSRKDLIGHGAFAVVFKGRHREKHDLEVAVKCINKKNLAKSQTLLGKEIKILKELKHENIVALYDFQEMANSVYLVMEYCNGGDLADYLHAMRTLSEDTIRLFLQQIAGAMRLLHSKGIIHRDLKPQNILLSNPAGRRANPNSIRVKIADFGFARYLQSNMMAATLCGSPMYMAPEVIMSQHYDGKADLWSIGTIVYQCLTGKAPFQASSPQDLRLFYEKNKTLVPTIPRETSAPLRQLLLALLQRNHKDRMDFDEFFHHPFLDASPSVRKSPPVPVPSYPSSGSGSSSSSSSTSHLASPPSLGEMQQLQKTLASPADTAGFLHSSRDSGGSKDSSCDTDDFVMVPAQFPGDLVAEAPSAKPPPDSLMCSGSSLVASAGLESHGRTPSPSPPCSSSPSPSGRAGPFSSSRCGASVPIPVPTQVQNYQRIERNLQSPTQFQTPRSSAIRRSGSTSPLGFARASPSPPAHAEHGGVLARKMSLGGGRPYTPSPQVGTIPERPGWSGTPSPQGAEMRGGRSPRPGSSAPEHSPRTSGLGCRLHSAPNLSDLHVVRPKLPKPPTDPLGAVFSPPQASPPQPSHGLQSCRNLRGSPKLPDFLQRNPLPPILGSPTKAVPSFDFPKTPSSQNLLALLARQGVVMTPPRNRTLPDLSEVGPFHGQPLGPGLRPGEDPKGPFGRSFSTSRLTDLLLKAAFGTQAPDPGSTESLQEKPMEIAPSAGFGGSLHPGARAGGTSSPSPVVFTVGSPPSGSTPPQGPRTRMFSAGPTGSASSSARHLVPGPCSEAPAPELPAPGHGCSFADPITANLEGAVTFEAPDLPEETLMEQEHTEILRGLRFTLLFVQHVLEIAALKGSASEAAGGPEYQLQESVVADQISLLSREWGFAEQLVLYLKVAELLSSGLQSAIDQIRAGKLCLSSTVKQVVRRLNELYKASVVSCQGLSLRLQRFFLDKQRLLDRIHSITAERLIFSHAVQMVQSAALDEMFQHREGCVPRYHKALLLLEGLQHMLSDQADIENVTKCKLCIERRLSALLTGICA
The data set is described as follows: ULK kinase activity inhibition assay (ADP-Glo). Format: biochemical. How it is done:
(§1) The ADP-Glo method was used to evaluate the inhibitory activity of the compounds against ULK1 and ULK2 kinases. Prepare 1× kinase reaction buffer (final working concentrations: HEPES 50 mM, MgCl2 10 mM, Brij35 0.01%, EGTA 1 mM, DTT 2 mM). Prepare 2× kinase and […] substrate solutions: ULK1 kinase at 0.5 nM; substrate mix containing ATP at 100 µM and MBP at 0.1 mg/mL. ULK2 kinase at 0.15 nM; substrate mix containing ATP at 6 µM and MBP at 0.1 mg/mL. Compounds were serially diluted in DMSO and shaken on a shaker for 20 minutes. Prepare 2× kinase using 1× kinase reaction buffer. Transfer 20 nL of compound into a 384-well plate. Add 2 µL of kinase to each well of the reaction plate. Seal the plate with sealing film, centrifuge at 1000 rpm for 60 seconds, and incubate at 25°C for 10 minutes. Prepare 2× ATP & MBP mixture using 1× kinase reaction buffer and add 2 µL to each well. Seal the plate, centrifuge at 1000 rpm for 60 seconds, and incubate at 25°C for 60 minutes. Add 4 µL ADP-Glo reagent to the 384-well plate, centrifuge at 1000 rpm for 1 minute, and incubate at 25°C for 40 minutes. Then, add 8 µL Detection Reagent, centrifuge at 1000 rpm for 1 minute, and incubate at 25°C for 40 minutes. Read the RLU (Relative Luminescence Unit) signal using a BMG plate reader to indicate kinase activity. Inhibition rate was calculated as: % Inhibition = 100% - [(Compound - Positive Control)/(Negative Control - Positive Control)] × 100%. IC50 values (half-maximal inhibitory concentration) were calculated by nonlinear regression using GraphPad Prism 7.0. Y = Bottom + (Top - Bottom)/(1 + 10^((LogIC50 - X) × Hill Slope)), where X is the log of compound concentration and Y is the % inhibition.
Background: In ADP-Glo the light output rises with the ADP produced.

In a further data set the target is T2, ULK2 kinase (Homo sapiens, UniProt Q8IYT8).
T2 sequence (Q8IYT8 1-1036): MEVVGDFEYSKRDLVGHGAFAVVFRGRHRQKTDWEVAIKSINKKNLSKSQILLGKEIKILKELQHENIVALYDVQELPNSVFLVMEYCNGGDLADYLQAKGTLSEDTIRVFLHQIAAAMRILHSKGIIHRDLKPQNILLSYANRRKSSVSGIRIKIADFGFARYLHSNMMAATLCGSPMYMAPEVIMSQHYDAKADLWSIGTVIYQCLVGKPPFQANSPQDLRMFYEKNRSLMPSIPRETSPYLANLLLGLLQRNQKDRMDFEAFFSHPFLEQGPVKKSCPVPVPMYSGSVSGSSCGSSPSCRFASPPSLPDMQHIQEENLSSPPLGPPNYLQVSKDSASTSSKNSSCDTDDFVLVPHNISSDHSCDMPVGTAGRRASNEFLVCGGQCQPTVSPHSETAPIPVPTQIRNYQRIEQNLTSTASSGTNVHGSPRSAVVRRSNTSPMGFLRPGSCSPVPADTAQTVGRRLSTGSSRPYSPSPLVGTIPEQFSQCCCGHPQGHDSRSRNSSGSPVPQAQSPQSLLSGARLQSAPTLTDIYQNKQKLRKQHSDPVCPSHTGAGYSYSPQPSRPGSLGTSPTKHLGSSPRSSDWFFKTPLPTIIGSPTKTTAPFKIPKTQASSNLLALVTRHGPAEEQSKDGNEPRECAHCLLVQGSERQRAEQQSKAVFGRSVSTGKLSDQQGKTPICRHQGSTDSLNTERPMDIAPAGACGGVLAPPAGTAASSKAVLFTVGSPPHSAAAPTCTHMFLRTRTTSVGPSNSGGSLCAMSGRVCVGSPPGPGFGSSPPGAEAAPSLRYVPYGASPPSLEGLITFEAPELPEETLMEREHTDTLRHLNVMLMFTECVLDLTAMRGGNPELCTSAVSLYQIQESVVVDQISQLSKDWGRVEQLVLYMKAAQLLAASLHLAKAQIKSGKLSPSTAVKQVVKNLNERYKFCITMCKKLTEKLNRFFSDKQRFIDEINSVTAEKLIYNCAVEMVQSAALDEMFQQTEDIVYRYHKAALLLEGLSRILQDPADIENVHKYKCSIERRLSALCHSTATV
The data set is described as follows: ULK kinase activity inhibition assay (ADP-Glo). The format is biochemical. As for the experimental part: as §1

Data set [1] in a line: Pharmacokinetic study in rats. Particulars: rat, plasma, po, 3 mg/kg.
Procedure: Pharmacokinetic parameters were calculated by statistical moment method using WinNonLin 8.0 software, mainly including Tmax, T1/2, Cmax and AUC0-24h.
Animals: Three male SD rats weighing 200-220 g were used. After purchase, they were housed in the laboratory animal center for 2 days before experiment. […] Blood samples were collected at scheduled time points after oral gavage.
Vehicle: 0.4% ethanol + 0.4% Tween 80 + 99.2% (0.5% methylcellulose M450). Preparation of oral gavage solution: The compound was accurately weighed and dissolved in vehicle by ultrasonication for 5 min at room temperature to prepare 0.3 mg/mL drug solution.
Single compound administration was also used to study pharmacokinetics in rats.
Blood sample collection: After oral gavage, blood samples were collected from orbital sinus at 0.25, 0.5, 1, 2, 4, 8, 10 and 24 h. 50 µL plasma was mixed with 200 µL acetonitrile (containing 2 ng/mL verapamil as internal standard). The mixture was vortexed for 3 min, then centrifuged at 20000 rcf for 10 min at 4 °C. The supernatant was analyzed by LC-MS/MS.
Standard curves were established by accurately weighing and preparing compounds at different concentrations for mass spectrometric quantification. Compound concentrations in plasma samples were determined based on standard curves to obtain concentration-time profiles. All measurement data were collected and processed by relevant software. Pharmacokinetic parameters (including Tmax, T1/2, Cmax and AUC0-24h) were calculated by statistical moment method.
Where [2] appears, read: ADP-Glo, ATP 100 µM, read-out: ULK1 (IC50).
The mark [3] stands for this setting: ADP-Glo, ATP 6 µM, read-out: ULK2 (IC50).

Turning to `CCc1cc2c(cc1Nc1ncc(C(F)(F)F)c(NCCCN3CCOCCC3=O)n1)OC[C@H]1CNCCN21` [Compound A4R], the IC50 at ULK1 kinase (setting [2]) is less than 1 nM. For the same compound, at ULK2 kinase (setting [3]), the IC50 is less than 1 nM. Besides, in data set [1], the AUC(0-t) at 24 h was found to be 880 ng·h/mL, the peak level (Cmax) was 217 ng/mL, the Tmax is 1.2 h and the half-life is 2.1 h.

The compound `CCc1cc2c(cc1Nc1ncc(C(F)(F)F)c(NCCCN3CCCCC3=O)n1)OC[C@H]1CN(C3CCN(C)CC3)CCN21` [Compound A6R] displayed an IC50 on ULK1 kinase of less than 3 nM. Also, at ULK2 kinase, the IC50 is less than 5 nM. In data set [1], the AUC(0-t) at 24 h was 1080 ng·h/mL, the Cmax amounted to 77.3 ng/mL, the Tmax is 6.7 h and the half-life is 8.3 h.

Take `CCc1cc2c(cc1Nc1ncc(C(F)(F)F)c(NCCCN3CCCCC3=O)n1)OC[C@H]1CN(C)CCN21` [Compound A8R]: on ULK1 kinase (setting [2]), the IC50 was less than 1 nM. The IC50 on ULK2 kinase (setting [3]) is less than 1 nM. Moreover, in data set [1], the AUC(0-t) at 24 h worked out at 685 ng·h/mL, the Cmax is 222 ng/mL, the Tmax was determined as 0.8 h and the half-life was 1 h.

The term IC50 denotes the concentration that gives 50% inhibition. For orientation: AUC(0-t) means the area under the concentration-time curve up to a stated or last time point. A word on the Cmax: it is the highest concentration seen after dosing. The term Tmax denotes the time at which the peak concentration occurs. By half-life is commonly meant how long it takes for the measured level to halve.
